{"source": "patent US6395772B1", "about": "“Method for blocking endothelial cell-leukocyte attachment by inhibiting expression of adhesion molecules on the vascular endothelium for therapeutic applications” (National Institute of Immunology, priority 1996, dated 2002)", "key": {"[1]": {"tested_on": "B cells, T cells", "conditions": "cited from earlier work"}, "[2]": {"tested_on": "ICAM-1 on endothelial cell line (send. 1)", "test": "TNF-α induced ICAM-1 expression on endothelial cell line (send. 1), flowcytometric analysis", "format": "cell-based", "excerpt": "FIG. 5: Effect of berberine pretreatment on expression of TNF-α induced ICAM-1 expression on endothelial cell line (send. 1), in vitro. […] (Flowcytometric analysis using anti-ICAM 1 antibody—FITC conjugate). The black line represents background level of ICAM expression, the red line represents induced level of ICAM following TNF stimulation and the green line represents TNF-α induced ICAM-1 expression after treatment for different duration.\nFIG. 6: Effect of berberine pretreatment (dose response) on expression of TNF-α induced ICAM-1 expression on endothelial cell line (send. 1), in vitro. […] (Flowcytometric analysis using anti-ICAM 1 antibody—FITC conjugate). The black line represents background level of ICAM-1 expression, the red line represents induced level of ICAM following TNF stimulation and the green line represents the TNF-α induced ICAM induced ICAM expression after treatment with different doses of berberine.\nShifting of this curve to the left indicates the lower amount of expression of ICAM-1.\nEffect of berberine for various duration ranging from 1, 6, 12 and 24 hours on the expression of ICAM-1 on the endothelial cell line (send. 1) in response to a combination of recombinant TNF-α and IFN-γ was analyzed using flowcytometer after staining with FITC labeled anti-CD 54 (ICAM-1) antibody."}, "[3]": {"tested_on": "attachment of neutrophils to endothelial lining of the glomerular capillaries", "test": "Neutrophil attachment to endothelial lining in kidney of endotoxin-challenged mice (electron microscopy)", "format": "in vivo, BALB/C mice", "method": "FIG. 1: Electron micrograph of kidney from a mouse challenged with endotoxin (LPS: 500 ug)) showing attachment of neutrophils with endothelial cells of glomerular capillary. Degenerative changes in surrounding tissue are shown.\nFIG. 2: Electron micrograph of kidney from a mouse treated with a dose of berberine of 10 mg/kg followed 24 hours later by endotoxin (LPS 500 ug).\nBALB/C mice were treated with berberine (1, 5, 10 or 20 ug/kg body weight) intraperitoneally and challenged 24 hours later with lethal dose of endotoxin. Kidneys were removed after 3, 6 and 12 hours after endotoxin challenge and the tissue samples was fixed and processed for electron microscopy."}, "[4]": {"tested_on": "TNF sensitive mouse fibroblast L-929 cell line", "test": "TNF-α mediated cytotoxicity on TNF-sensitive L-929 fibroblast cell line (MTT assay)", "format": "cell-based", "method": "FIG. 7: Effect of berberine on TNF-α mediated cytotoxicity on TNF sensitive mouse fibroblast L-929 cell line.\nEffect of Berberine on TNF-α mediated cytotoxicity was evaluated using TNF-sensitive L-929 fibroblast cell line. L-929 cells were plated at a concentration of 5×10^4 cells/well in a 96-well flat bottom plate in a volume of 100 μl. The cells were incubated at 37° C. for 16-18 hrs. Different concentrations of TNF-α, with and without different doses of berberine, were added to the cultures. The cells were then incubated for additional 15 hrs and cytotoxity was measured by MTT assay."}, "[5]": {"tested_on": "ICAM-1", "test": "ICAM-1 expression on vascular endothelium of LPS-challenged mice (immunocytochemical localization)", "format": "in vivo, BALB/C mice", "conditions": "berberine intraperitoneally 24 hours before 500 ug LPS; sacrificed 6 hours after LPS", "method": "FIG. 3: Photomicrograph of liver from mice challenged with endotoxin (LPS 500 ug). […] (Immunocytochemical localization using anti-ICAM-1 antibody on frozen tissue).\nFIG. 4: Photomicrograph of liver from mice treated with berberine (10 ug/kg) followed 24 hours later by endotoxin (LPS 500 ug). […] (Immunocytochemical localization using anti-ICAM-1 antibody frozen tissue).\nBALB/C mice were treated with berberine (1, 5, 10 or 20 ug/kg body weight) intraperitoneally and challenged 24 hours later with 500 ug of endotoxin (lipopolysaccharide: LPS); controls without berberine treatment were also given LPS challenge. Animals were sacrificed 6 hours after the LPS challenge and various organs (liver, kidney, lungs) were removed and immediately frozen in liquid nitrogen. Frozen section of these organs were subjected to immunocytochemical localization for ICAM 1 antibodies."}}, "note": "Entries after “also recorded” stand apart in the source; their conditions may differ."}
{"smiles": "COc1ccc2cc3[n+](cc2c1OC)CCc1cc2c(cc1-3)OCO2", "note": "[berberine]", "values": [{"measurement": "antibody production by B cells", "setting": "[1]", "value": "inhibits antibody production by B cells"}, {"measurement": "propagation of T cells", "setting": "[1]", "value": "no effect on propagation of T cells"}, {"measurement": "maximum inhibition of ICAM-1 expression", "setting": "[2]; 24 hours of treatment at 100 μg/ml", "value": "24 hour pretreatment shows the maximum inhibition of ICAM-1 expression and Treatment with 100 ug/ml berberine shows the maximum inhibition of ICAM-1 expression and maximum inhibition was seen at 24 hours of treatment at 100 μg/ml"}, {"measurement": "dose dependence of inhibition of ICAM-1 expression", "setting": "[2]; dose response, FIG. 6", "value": "dose dependent"}, {"measurement": "inhibition of ICAM-1 expression on endothelial cells", "setting": "[2]; recombinant TNF-α and IFN-γ stimulation, as early as 6 hours of treatment", "value": "inhibited the expression of ICAM-1 on endothelial cells"}, {"measurement": "glomerular morphology / surrounding tissue", "setting": "[3]; berberine dose of 10-20 mg/kg, endotoxin challenge 24 hours later", "value": "surrounding tissue appears normal; also recorded: glomerular morphology was normal"}, {"measurement": "attachment of neutrophils to endothelial lining of glomerular capillaries", "setting": "[3]; berberine intraperitoneally 24 hours before lethal endotoxin (LPS 500 ug), kidneys 3, 6 and 12 hours after challenge", "value": "appear free without attachment to endothelial lining; also recorded: remarkably inhibited the attachment of neutrophils to endothelial lining of the glomerular capillaries"}, {"measurement": "TNF mediated cytotoxity", "setting": "[4]; berberine 100 μg/ml, TNF 100 pg/ml alone showed 66% cytotoxity, 15 hrs incubation", "value": 27, "unit": "%"}, {"measurement": "protection against TNF mediated killing", "setting": "[4]; different doses of berberine with TNF-α, 15 hrs", "value": "dose dependent inhibition of cytotoxic effect; also recorded: dose dependent protection"}, {"measurement": "expression of ICAM-1 on vascular endothelium (liver, kidney, lungs)", "setting": "[5]", "value": "lack of expression of ICAM-1 on vascular endothelium; also recorded: inhibited expression of ICAM 1 on the endothelial lining of all organs"}]}
